Experimental data taken from patent US20180243297A1, “Amino pyrazine derivatives as phosphatidylinositol 3-kinase inhibitors” (Novartis AG, priority 2014, published 2018).
Where two headings read alike, the source gives them in different places.

Assays:
Vps34 = Vps34 (Homo sapiens, UniProt Q8NEB9); test: Kinase Glo luminescent kinase assay (Kglo), assay C; format: biochemical
Description: (§1) Kinase Glo Luminescent Kinase Assay (Kglo) for Pb 3-Kinase Alpha (A), Pb 3-Kinase Beta (B), Vps34 (C), Pb 4-Kinase Beta (D)
(§2) The Kinase Glo Luminescent Kinase Assay (Promega, Madison/Wis., USA) is a homogeneous HTS method of measuring kinase activity by quantifying the amount of ATP remaining in solution following a kinase reaction.
(§3) L-α-phosphatidylinositol (PI), provided as 10 mg/ml solution in methanol, was transferred into a glass tube and dried under a nitrogen beam. It was then resuspended in 3% OctylGlucoside (1-0-n-octyl-beta-D-glucopyranoside) by vortexing and stored at 4° C. 5 μL of a mix of PI/OctylGlucoside with the PI 3-kinase alpha and PI 3-kinase beta subtypes, or Vps34 or PI 4-kinase beta were added. Kinase reactions were started by the addition of 5 μl of an ATP-mix containing in a final volume 10 μL 10 mM TRIS-HCl pH 7.5, 3 mM MgCl2, 50 mM NaCl, 0.05% CHAPS, 1 mM DTT and 1 μM ATP at room temperature.
(§4) All fits were performed with the program XLfit4 (ID Business Solutions, Guildford, UK).

[1] = biological target: T1, PI 3-kinase gamma (U937 cells, MIP1α-stimulated AKT phosphorylation) (Homo sapiens, UniProt P48736); test: Cellular U937 AKT assay (MSD), assay K1; format: cell-based; settings: MSD format, read-out: Assay K1 PI3Kγ IC50
T1 construct: endogenous in cells; host or cells: U937 human monocyte cell line
Description: (§5) In assays K1 and K2, the compounds were tested for their ability to inhibit the production of phosphorylated AKT (Protein Kinase B) generated in a PI 3-kinase gamma isoform-dependent process in a U937 human cell line.
Cellular U937 AKT Assay for PI 3-Kinase Gamma (K1)
Cells are incubated at 37° C., 5% CO2.
Before beginning the cell manipulations described below, the MSD (Meso Scale Discovery) assay plate is blocked by addition of 150 μl/well blocking buffer supplied and incubated with shaking for a minimum of one hour at room temperature. All steps of the assay must be performed quickly, with accurately timed incubation periods and observing temperature controls where indicated.
falcon tube, counted and centrifuged for eight minutes at 300 g at room temperature. Supernatant is aspirated, the cell pellet resuspended and washed once in HBSS (Hank's Balanced Salt Solution) by centrifugation for eight minutes at 300 g at room temperature. […] Assay plates are incubated for 1.5 hours at 37° C., 5% CO2 to allow background AKT phosphorylation to reduce before the compound stimulation step.
Compound titrations are prepared in a fresh flat-bottomed, 96-well plate, by 10-fold serial dilution of 40 μM into HBSS 0.8% DMSO; pipette tips are replaced after each dilution is made. Compound concentrations at this stage are 4-times the final concentration required in the assay plate. Cells are stimulated with compound or HBSS 0.8% DMSO by direct transfer of 50 μl/well from the compound dilution plate. The assay plate containing compound-treated cells is then incubated for 30 minutes at 37° C. A standard plate layout is used for all experiments.
Compound-treated cells, in addition to positive control wells (“max MIP1α”), are stimulated with 50 μL per well of 40 ng/ml MIP1α (R&D Systems catalogue number 270-LD, lyophilized stock reconstituted to 50 μg/ml with PBS 0.1% BSA). Negative control wells (“min HBSS”), are stimulated with 50 μl/well of HBSS in the absence of MIP1α. Final compound concentrations are now diluted 4-fold giving a top concentration of 10 μM; where added, the final concentration of MIP1α is 10 ng/ml. Cells are incubated with MIP1α for 3 minutes, at 37° C., 5% CO2. After the three minute stimulation period, the assay plate is kept ice cold at all times. Assay plates are centrifuged for 2 minutes at 300 g, 4° C. and supernatant is removed by gently inverting, and then blotting the plate on tissue. Cells are then washed by gentle addition of 150 μL/well of ice cold HBSS and centrifugation at 300 g, for 5 minutes at 4° C. Supernatant is
aspirated and the plate blotted as described above. […] Plates are incubated on ice for 20 minutes before centrifugation at 841 g for 5 minutes, 4° C.
Block buffer is aspirated from the MSD plate, and the plate washed four times with 300 μl/well Tris wash buffer. 25 μL of cell lysate is then transferred from the assay plate to the washed MSD plate which is sealed and incubated at room temperature for one hour with shaking. […] The plate is washed four times with 300 μl per well of Tris wash buffer and 150 μl per well of Read buffer is added, taking care to avoid the introduction of bubbles. The plate is immediately read using an MSD SECTOR Imager 6000. Results are exported in Excel and the percentage of phosphorylated AKT is calculated using the equation: % Phosphoprotein=((2*Phospho signal)/(Phospho signal+Total signal))*100. Compound-mediated inhibition of AKT phosphorylation is analysed using Prizm V Graphpad software.

[2] = Microsomal clearance assay, assay M; format: in vitro ADME; settings: intrinsic clearance in rat liver microsomes
Description: The experiments were performed in 96-well glass plates at 37° C. on an automated Tecan EVO platform. Test compounds at a concentration of 10 mM in pure DMSO were diluted 1:1000 in water to 10 μM. […] Reactions were initiated by the addition of 150 μL of a cofactor solution containing 2 mM NADPH.

[3] = test system: IL-8-induced neutrophil shape change in human whole blood; test: Whole blood neutrophil shape change assay, assay L; format: cell-based; settings: read-out: Assay L WBSC IC50
Description: Whole Blood Neutrophil Shape Change Assay (L)
IL-8 was made up to 2 μM stocks in 0.1% bovine serum albumin/PBS and stored at −80° C. On the day IL-8 was diluted in PBS (phosphate buffered saline) 10 minutes before use. IL-8 was used at final concentration of 2 nM and a concentration range from 0.003 to 200 nM for the donor dose response curve.
Assay fixative solution was prepared fresh each day from 10× concentrated CellFlX™ solution diluted 1:10 in sterile distilled water and then 1:4 with PBS. Assay fixative solution was kept on ice prior to use.
A 10× lysis buffer was prepared in advance by dissolving 20.75 g NH4Cl and 2.5 g KHCO3 in 250 ml sterile H2O. This 10× lysis buffer was filtered under sterile conditions and stored for up to two weeks at 4° C. On the day a 1× lysis solution was prepared with sterile distilled H2O and kept on ice prior to use.
The test compounds were prepared as 10 mM stock solutions in 100% DMSO and were stored at 4° C. Once in use for an assay 10 mM stock compounds were thawed and stored at RT protected from light. Compound dilutions were prepared fresh on the day. The first series of dilutions in 100% DMSO were done first thing in the morning. Only once blood had been collected and arrived in laboratory was the next set of dilutions into PBS carried out (1:10 PBS, 10% DMSO). This limited the exposure of diluted compound to plastic and made sure the exposure timing was consistent between assays.
Compound dilutions in 100% DMSO were prepared as described previously. Human whole blood was collected in K2 EDTA Vacutainers. Once blood was in the laboratory, compound dilutions into PBS were carried out as described previously and depicted in Table 1.
The outer wells of the deep well assay plate were filled with 1200 μl of sterile distilled H2O in an effort to limit edge effects (rows A1-H1, A1-A12, A12-H12).
An IL-8 dose response was determined for each blood donor examined, to monitor the donor response to IL-8. […] In addition the assay window without DMSO was also assessed each day. […]

[4] = biological target: T2, PI 3-kinase beta (Rat-1_PI3Kbeta cells, Myr-HA-hp110 beta) (Homo sapiens, UniProt P42338); test: Cellular p-Akt (S473) assay, Surefire format, assay I1; format: cell-based; settings: non-asterisked data: version I1 (Surefire format); read-out: Assay I PI3Kβ IC50
T2 construct: expressed in transfected cells
Description: The assay allows characterization of kinase signaling in cells as well as measurement of kinase inhibitor effects.
(§6) Using Rat-1 cells stably expressing myr-HA-tagged versions of the human PI3Kdelta, PI3Kalpha, or PI3Kbeta p110 catalytic subunit isoforms, the assay was developed as a two-plate protocol in a 384-well format.
(§7) For compound testing, the cells were seeded at a density of 4000 (Rat-1_PI3Kdelta), 7500 (Rat-1_PI3Kalpha), or 6200 (Rat-1_PI3Kbeta) cells in 20 μl complete growth medium into cell culture treated 384-well plates and were grown at 37° C./5% CO2/90% humidity for 24 h. Shortly before compound transfer, the complete medium was removed, 30 μl assay buffer (DMEM high glucose, 1×MEM NEAA, 10 mM HEPES, 2 mM L-glutamine, 0.1% (w/v) BSA) was added and 10 μl of the compound predilutions were transferred to the cells.
as §4

[5] = biological target: T3, PI 3-kinase delta (Rat-1_PI3Kdelta cells, Myr-HA-hp110 delta) (Homo sapiens, UniProt O00329); test: Cellular p-Akt (S473) assay, Surefire format, assay J1; format: cell-based; settings: non-asterisked data: version J1 (Surefire format); read-out: Assay J PI3Kδ IC50
T3 construct: expressed in transfected cells
T3 sequence (O00329 1-1044): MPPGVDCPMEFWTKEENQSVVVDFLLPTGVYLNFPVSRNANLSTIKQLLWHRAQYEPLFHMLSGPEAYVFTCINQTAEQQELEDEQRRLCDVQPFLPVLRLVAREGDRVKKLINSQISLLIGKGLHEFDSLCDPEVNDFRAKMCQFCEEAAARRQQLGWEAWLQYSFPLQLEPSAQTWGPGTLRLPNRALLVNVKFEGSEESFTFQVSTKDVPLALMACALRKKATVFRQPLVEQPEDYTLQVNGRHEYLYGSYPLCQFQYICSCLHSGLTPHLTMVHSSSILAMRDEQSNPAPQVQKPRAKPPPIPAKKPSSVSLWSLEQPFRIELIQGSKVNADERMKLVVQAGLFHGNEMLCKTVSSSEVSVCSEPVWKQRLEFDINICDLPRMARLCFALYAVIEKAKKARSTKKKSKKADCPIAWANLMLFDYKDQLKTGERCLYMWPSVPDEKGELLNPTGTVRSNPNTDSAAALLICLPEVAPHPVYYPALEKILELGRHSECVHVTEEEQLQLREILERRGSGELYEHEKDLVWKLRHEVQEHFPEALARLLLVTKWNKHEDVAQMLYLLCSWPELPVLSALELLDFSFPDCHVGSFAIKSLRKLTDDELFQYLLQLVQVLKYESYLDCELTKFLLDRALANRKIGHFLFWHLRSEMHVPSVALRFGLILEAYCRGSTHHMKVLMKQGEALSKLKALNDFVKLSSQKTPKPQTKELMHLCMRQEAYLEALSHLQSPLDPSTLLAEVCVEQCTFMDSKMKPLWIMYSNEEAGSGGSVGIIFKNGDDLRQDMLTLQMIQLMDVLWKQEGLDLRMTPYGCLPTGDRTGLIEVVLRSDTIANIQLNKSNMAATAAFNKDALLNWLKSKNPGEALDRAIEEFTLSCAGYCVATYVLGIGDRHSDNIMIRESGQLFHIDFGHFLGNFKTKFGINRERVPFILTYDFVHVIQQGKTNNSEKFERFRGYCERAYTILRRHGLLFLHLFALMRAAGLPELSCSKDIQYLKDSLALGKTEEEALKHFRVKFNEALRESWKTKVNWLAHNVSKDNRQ
Excerpt: (§8) Cellular Assays for PI 3-Kinase Alpha (H1), Beta (I1) and Delta (J1): Surefire Format
(§9) AlphaScreen (Amplified Luminescent Proximity Homogeneous Assay, ALPHA, Perkin Elmer) is a non-radioactive bead-based proximity assay technology to study biomolecular interactions in a homogenous microtiter plate format. The brand name SureFire denotes AlphaScreen assays that are adapted to quantify the phosphorylation of endogenous cellular proteins in cell lysates, by using matched antibody pairs, which consist of an anti-phospho-kinase and an anti-kinase antibody. The assay allows characterization of kinase signaling in cells as well as measurement of kinase inhibitor effects.
as §6, §7

[6] = biological target: T4, PI 3-kinase alpha (Rat-1_PI3Kalpha cells, Myr-HA-hp110 alpha) (Homo sapiens, UniProt P42336); test: Cellular p-Akt (S473) assay, Surefire format, assay H1; format: cell-based; settings: non-asterisked data: version H1 (Surefire format); read-out: Assay H PI3Kα IC50
T4 construct: expressed in transfected cells
Excerpt: as §8, §9, §6, §7

mTOR = mTOR (Homo sapiens, UniProt P42345); test: Lanthascreen kinase binding assay, assay G
Description: Lanthascreen™ Kinase Binding Assay for mTOR (G)
Binding of an inhibitor to the kinase competes for binding with the tracer, resulting in a loss of FRET.
50 nL of compound dilutions were dispensed onto white 384-well small volume polystyrene plate.

[7] = biological target: T1, PI 3-kinase gamma (U937 cells, MIP1α-stimulated AKT phosphorylation); test: Cellular U937 AKT assay (HTRF), assay K2; format: cell-based; settings: HTRF format, read-out: Assay K2 PI3Kγ IC50
Description: as §5
Cellular U937 AKT Assay for PI 3-Kinase Gamma (K2)
U937 cells are split every 3-4 days: 5×10^6 cells/flask (175 cm^2) in 40 ml.
Semi-automated preparation of cell lysates: Cells were resuspended in HBSS, seeded (200′000 cells/well/60 μl) into a 384-well plate and incubated in a humidified 37° C., 5% CO2 incubator for 1.5 hours. The compounds were diluted with HBSS and 40 μl were added to the starved cells (except for wells 24 I-P). […] The cells were then incubated for 30 minutes at 37° C. and 5% CO2. Stimulation occurred during 3 minutes by addition of 20 μl MIP1α (final 10 ng/ml, diluted in HBSS) in the incubator. Wells 24 A-H were only stimulated with HBSS.
The stimulation was then stopped by putting the cell plates on ice (filled with cold water). The cells were then centrifuged at 1200 rpm and 4° C. for 3 minutes.
80 μl of supernatant was removed. The cells were again centrifuged at 1200 rpm and 4° C. for 3 minutes. The supernatant was then removed by turning plates upside down and 30 μl of lysis buffer were added. The plate was incubated at room temperature for 30 minutes under shaking. 16 μl were then transferred to a ProxiPlate Plus 384-well. […]

PI 3-kinase gamma = PI 3-kinase gamma (Homo sapiens, UniProt P48736); test: TR-FRET Adapta assay, assay E; format: biochemical
Description: (§10) TR-FRET Adapta Assay for PI 3-Kinase Gamma (E), PI 3-Kinase Delta (F)
(§11) The TR-FRET Adapta™ Universal Kinase Assay Kit was purchased from lnvitrogen Corporation (Carlsbad/CA, USA) (Cat. No. PV5099).
(§12) PIK3CD substrate phosphatidylinositol (PI) was obtained from lnvitrogen (vesicules consisting of 2 mM phosphatidylinositol (PI) in 50 mM HEPES pH7.5; Cat. No. PV5371). PIK3CG substrate phosphatidylinositol-4,5-bisphosphate (PIP(4,5)2 was obtained from lnvitrogen (PIP2:PS large unilamellar vesicules consisting of 1 mM PIP2: 19 mM PS in 50 mM HEPES pH7.5, 3 mM MgCl2, 1 mM EGTA; Cat. No. PV5100).
(§13) The Adapta™ assay can be divided into two phases: a kinase reaction phase and an ADP detection phase. In the kinase reaction phase, all kinase reaction components are added to the well and the reaction is allowed to incubate for a set period of time specific for each kinase. […] In the presence of an inhibitor, the amount of ADP formed by the kinase reaction is reduced, and the resulting intact antibodytracer interaction maintains a high TR-FRET signal.
(§14) 50 nL of compound dilutions were dispensed onto white 384-well small volume polystyrene plate. […]
(§15) Data are analyzed using Excel fit software or Graphpad Prism. IC50 values were derived by fitting a sigmoidal dose-response curve to a plot of assay readout over inhibitor concentration. […]

PI 3-kinase alpha = PI 3-kinase alpha (Homo sapiens, UniProt P42336); test: Kinase Glo luminescent kinase assay (Kglo), assay A; format: biochemical; settings: read-out: Assay A PI3Kα IC50
Description: as §1, §2, §3, §4

PI 3-kinase delta = PI 3-kinase delta (Homo sapiens, UniProt O00329); test: TR-FRET Adapta assay, assay F
Sequence of PI 3-kinase delta (P27986 461-568 partner limits assumed, one chain of several): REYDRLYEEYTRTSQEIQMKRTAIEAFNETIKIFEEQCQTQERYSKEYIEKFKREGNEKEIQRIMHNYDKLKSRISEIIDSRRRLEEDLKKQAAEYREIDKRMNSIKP
Description: as §10, §11, §12, §13, §14, §15

Sequence of Vps34 (Q8NEB9 whole entry, species assumed): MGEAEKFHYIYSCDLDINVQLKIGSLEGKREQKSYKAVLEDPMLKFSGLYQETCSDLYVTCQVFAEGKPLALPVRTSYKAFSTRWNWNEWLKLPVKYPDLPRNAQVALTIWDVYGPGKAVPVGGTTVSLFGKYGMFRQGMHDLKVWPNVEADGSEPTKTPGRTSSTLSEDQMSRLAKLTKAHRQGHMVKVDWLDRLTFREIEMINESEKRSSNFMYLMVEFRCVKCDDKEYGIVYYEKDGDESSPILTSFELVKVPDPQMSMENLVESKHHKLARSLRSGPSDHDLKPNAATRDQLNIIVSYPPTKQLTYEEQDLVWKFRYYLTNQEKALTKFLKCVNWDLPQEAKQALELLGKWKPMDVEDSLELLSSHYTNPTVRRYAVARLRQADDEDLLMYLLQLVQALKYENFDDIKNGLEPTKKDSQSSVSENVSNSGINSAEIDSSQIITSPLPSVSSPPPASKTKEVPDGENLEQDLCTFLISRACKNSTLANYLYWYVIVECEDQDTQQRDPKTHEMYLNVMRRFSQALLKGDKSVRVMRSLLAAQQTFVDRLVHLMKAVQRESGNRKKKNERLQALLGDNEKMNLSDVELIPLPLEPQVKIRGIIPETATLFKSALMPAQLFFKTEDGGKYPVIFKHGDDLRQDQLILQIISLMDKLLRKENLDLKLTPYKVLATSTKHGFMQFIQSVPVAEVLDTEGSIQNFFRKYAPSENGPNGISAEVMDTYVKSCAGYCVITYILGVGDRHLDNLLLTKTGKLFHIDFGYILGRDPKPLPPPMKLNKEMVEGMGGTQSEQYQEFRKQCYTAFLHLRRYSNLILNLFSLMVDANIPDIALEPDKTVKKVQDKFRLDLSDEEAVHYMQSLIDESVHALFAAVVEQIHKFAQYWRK
T2 sequence (P42338 whole entry): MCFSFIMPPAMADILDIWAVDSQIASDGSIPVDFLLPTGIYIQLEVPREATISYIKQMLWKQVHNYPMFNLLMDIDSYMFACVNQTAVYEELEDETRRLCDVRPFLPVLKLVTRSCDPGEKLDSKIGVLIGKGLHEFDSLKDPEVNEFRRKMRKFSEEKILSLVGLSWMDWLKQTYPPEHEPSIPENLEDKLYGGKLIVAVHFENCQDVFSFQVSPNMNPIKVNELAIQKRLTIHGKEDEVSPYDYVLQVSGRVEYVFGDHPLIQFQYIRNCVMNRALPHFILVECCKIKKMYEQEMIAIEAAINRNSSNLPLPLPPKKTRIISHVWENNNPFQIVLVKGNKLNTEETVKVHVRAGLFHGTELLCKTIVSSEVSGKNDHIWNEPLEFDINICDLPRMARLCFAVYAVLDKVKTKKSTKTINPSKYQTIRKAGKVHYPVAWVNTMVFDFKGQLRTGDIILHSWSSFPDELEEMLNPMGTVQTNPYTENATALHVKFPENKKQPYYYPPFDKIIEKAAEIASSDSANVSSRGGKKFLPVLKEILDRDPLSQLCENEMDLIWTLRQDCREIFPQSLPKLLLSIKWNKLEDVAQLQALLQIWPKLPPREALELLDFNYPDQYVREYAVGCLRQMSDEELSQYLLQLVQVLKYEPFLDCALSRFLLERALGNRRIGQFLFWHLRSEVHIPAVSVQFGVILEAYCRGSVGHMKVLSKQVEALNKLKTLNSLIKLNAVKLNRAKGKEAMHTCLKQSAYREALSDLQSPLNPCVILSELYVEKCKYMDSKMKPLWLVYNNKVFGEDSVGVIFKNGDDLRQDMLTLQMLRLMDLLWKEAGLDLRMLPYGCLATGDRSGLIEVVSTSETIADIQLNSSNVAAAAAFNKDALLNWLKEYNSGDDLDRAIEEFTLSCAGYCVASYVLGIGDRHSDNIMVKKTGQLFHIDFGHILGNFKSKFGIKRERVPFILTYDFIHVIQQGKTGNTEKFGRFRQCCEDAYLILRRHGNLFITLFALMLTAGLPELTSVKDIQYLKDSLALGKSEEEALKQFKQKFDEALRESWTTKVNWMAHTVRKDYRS
T4 sequence (P42336 whole entry): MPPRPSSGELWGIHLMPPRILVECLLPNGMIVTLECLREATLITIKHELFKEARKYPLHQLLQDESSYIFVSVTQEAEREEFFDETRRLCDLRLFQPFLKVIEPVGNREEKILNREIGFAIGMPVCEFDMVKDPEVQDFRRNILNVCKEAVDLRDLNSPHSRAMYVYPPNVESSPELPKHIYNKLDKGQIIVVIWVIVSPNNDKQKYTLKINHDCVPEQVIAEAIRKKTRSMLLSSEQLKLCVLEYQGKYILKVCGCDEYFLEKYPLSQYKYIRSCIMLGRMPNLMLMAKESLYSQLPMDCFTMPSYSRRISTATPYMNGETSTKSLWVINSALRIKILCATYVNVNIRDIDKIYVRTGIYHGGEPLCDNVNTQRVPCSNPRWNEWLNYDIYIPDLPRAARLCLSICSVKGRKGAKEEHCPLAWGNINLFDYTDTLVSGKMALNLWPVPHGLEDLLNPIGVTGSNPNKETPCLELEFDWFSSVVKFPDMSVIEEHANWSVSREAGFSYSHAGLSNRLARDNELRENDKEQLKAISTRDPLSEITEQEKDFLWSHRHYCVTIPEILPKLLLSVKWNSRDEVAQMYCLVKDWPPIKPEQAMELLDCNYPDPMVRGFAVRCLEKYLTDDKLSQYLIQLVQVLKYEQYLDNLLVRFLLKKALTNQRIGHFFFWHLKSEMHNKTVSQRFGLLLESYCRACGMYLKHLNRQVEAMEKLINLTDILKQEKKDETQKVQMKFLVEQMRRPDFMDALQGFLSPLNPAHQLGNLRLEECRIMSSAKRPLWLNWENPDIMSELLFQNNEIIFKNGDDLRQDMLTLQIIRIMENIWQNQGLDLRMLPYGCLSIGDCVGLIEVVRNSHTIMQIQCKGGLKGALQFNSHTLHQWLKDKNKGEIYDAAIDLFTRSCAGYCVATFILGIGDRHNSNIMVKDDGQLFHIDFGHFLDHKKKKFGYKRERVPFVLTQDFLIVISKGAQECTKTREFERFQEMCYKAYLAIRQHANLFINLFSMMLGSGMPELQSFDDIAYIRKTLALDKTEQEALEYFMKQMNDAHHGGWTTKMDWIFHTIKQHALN
T1 sequence (P48736 whole entry): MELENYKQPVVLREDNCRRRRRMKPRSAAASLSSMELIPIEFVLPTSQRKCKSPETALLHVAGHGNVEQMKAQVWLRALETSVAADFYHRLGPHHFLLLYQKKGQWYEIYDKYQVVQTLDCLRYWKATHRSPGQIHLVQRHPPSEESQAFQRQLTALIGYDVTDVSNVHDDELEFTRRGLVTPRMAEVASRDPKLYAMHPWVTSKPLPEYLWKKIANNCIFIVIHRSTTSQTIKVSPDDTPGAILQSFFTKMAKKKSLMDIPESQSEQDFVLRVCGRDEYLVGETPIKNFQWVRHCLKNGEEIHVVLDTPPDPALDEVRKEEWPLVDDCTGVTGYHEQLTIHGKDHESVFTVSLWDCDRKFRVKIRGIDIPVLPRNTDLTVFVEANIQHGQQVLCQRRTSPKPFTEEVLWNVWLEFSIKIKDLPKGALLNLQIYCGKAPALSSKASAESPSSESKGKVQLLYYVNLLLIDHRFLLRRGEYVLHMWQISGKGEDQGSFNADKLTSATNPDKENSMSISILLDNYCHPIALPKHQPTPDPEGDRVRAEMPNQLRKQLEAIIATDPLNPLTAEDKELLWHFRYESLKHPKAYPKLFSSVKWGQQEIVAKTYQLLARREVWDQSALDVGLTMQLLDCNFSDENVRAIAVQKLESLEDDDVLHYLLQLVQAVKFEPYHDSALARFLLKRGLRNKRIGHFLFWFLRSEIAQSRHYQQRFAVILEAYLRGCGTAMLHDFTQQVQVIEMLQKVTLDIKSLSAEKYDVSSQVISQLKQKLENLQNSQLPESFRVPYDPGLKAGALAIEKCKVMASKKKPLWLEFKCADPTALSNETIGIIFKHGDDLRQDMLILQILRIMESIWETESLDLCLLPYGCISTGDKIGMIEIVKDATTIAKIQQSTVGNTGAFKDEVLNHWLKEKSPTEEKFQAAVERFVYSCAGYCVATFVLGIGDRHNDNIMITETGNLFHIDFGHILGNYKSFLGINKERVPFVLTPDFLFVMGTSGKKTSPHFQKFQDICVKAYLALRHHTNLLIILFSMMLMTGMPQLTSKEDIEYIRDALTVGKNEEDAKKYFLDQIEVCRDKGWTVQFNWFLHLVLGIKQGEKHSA
Sequence of PI 3-kinase gamma (P48736 whole entry): as above
Sequence of PI 3-kinase alpha (P42336 whole entry): as the sequence (P42336 whole entry) above
Sequence of PI 3-kinase alpha (P27986 461-568 partner limits assumed): as the sequence (P27986 461-568 partner limits assumed, one chain of several) above

Cc1ncc(-c2nc(-c3cc(S(=O)(=O)NCC4(CO)CCOCC4)ccc3C)cnc2N)s1 [Example 45.9, 3-(5-Amino-6-(2-methylthiazol-5-yl)pyrazin-2-yl)-N-((4-(hydroxymethyl)tetrahydro-2H-pyran-4-yl)methyl)-4-methylbenzenesulfonamide]
IC50 (Vps34): 9400 nM

Cc1ccc(S(=O)(=O)NCC2CCC(C)(C)O2)cc1-c1cnc(N)c(-n2cncn2)n1 (stereo in doubt) [Example 127.40, (R)-3-(5-amino-6-(1H-1,2,4-triazol-1-yl)pyrazin-2-yl)-N-((5,5-dimethyltetrahydrofuran-2-yl)methyl)-4-methylbenzenesulfonamide]
IC50 [1]: 411 nM

Cc1cc(-c2nc(-c3cc(S(=O)(=O)NC4CCOCC4)ccc3C)cnc2N)ccn1 [Example 129.10]
Assay M RLM CI(int) [2]: 78 µL/min/mg
IC50 [3]: 1610 nM

Cc1ccc(S(=O)(=O)NCCC(C)(C)O)cc1-c1cnc(N)c(-c2ccnc(F)c2)n1 [Example 119.10, 3-(5-amino-6-(2-fluoropyridin-4-yl)pyrazin-2-yl)-N-(3-hydroxy-3-methylbutyl)-4-methylbenzenesulfonamide]
IC50 [4]: 2590 nM
IC50 [1]: 172 nM
IC50 [5]: 1040 nM
IC50 [6]: 630 nM

Cc1cc(-c2nc(-c3cc(S(=O)(=O)NCC(C)(C)O)ccc3C)cnc2N)on1 [Example 88, 3-(5-Amino-6-(3-methylisoxazol-5-yl)pyrazin-2-yl)-N-(2-hydroxy-2-methylpropyl)-4-methylbenzenesulfonamide]
IC50 (mTOR): 9100 nM
IC50 (Vps34): 9100 nM

Cc1ccc(S(=O)(=O)NC[C@](C)(O)C(F)(F)F)cc1-c1cnc(N)c(-n2cncn2)n1 [Example 127.23, (S)-3-(5-amino-6-(1H-1,2,4-triazol-1-yl)pyrazin-2-yl)-4-methyl-N-(3,3,3-trifluoro-2-hydroxy-2-methylpropyl)benzenesulfonamide]
IC50 (mTOR; Lanthascreen kinase binding assay): 9100 nM

Cc1ncc(-c2nc(-c3cc(S(=O)(=O)NCCC(C)(C)O)ccc3C)cnc2N)o1 [Example 119.40, 3-(5-amino-6-(2-methyloxazol-5-yl)pyrazin-2-yl)-N-(3-hydroxy-3-methylbutyl)-4-methylbenzenesulfonamide]
IC50 [4]: 8160 nM
Assay M RLM CI(int) [2]: 56 µL/min/mg
IC50 [5]: 1040 nM
IC50 [6]: 1100 nM
IC50 [7]: 47 nM

Cc1nc(-c2nc(-c3cc(S(=O)(=O)NCCC(C)(C)O)ccc3C)cnc2N)cs1 [Example 119.30, 3-(5-amino-6-(2-methylthiazol-4-yl)pyrazin-2-yl)-N-(3-hydroxy-3-methylbutyl)-4-methylbenzenesulfonamide]
IC50 [4]: 6990 nM
IC50 [1]: 42 nM
Assay M RLM CI(int) [2]: 77 µL/min/mg
IC50 [5]: 630 nM
IC50 [6]: 690 nM
IC50 [3]: 1140 nM

Cc1ccc(S(=O)(=O)N[C@@H]2CCOC2)cc1-c1cnc(N)c(-n2cncn2)n1 [Example 127.20, (R)-3-(5-amino-6-(1H-1,2,4-triazol-1-yl)pyrazin-2-yl)-4-methyl-N-(tetrahydrofuran-3-yl)benzenesulfonamide]
IC50 [1]: 850 nM

Cc1ccc(S(=O)(=O)NCCC(C)(C)O)cc1-c1cnc(N)c(-c2cccnc2OC(C)C)n1 [Reference example 119.12, 3-(5-amino-6-(2-isopropoxypyridin-3-yl)pyrazin-2-yl)-N-(3-hydroxy-3-methylbutyl)-4-methylbenzenesulfonamide]
activity in assay E (PI 3-kinase gamma) (PI 3-kinase gamma; result in words): not shown any activity

Cc1cc(-c2nc(-c3cc(S(=O)(=O)NCCC(C)(O)C(F)(F)F)ccc3C)cnc2N)ccn1 (stereo not drawn) [Example 129.13]
IC50 [6]: 3000 nM

Cc1ccc(S(=O)(=O)NCCC(C)(C)O)cc1-c1cnc(N)c(-c2cncnc2)n1 [Example 119.20, 3-(5-amino-6-(pyrimidin-5-yl)pyrazin-2-yl)-N-(3-hydroxy-3-methylbutyl)-4-methylbenzenesulfonamide]
IC50 [4]: 4860 nM
IC50 [5]: 7030 nM
IC50 [6]: 4950 nM

Cc1ccc(S(=O)(=O)N[C@@H]2CNC[C@H]2O)cc1-c1cnc(N)c(-n2cncn2)n1 [Example 127.60]
Assay M RLM CI(int) [2]: 20 µL/min/mg

Cc1ccc(S(=O)(=O)NCC2COCCN2C)cc1-c1cnc(N)c(-c2cn(C)nc2C)n1 (single isomer, unassigned) [Example 128.3a, (R or S)-3-(5-Amino-6-(1,3-dimethyl-1H-pyrazol-4-yl)pyrazin-2-yl)-4-methyl-N-((4-methylmorpholin-3-yl)methyl)benzenesulfonamide]
IC50 (PI 3-kinase alpha): 230 nM
IC50 (PI 3-kinase gamma; TR-FRET Adapta assay, read-out: Assay E PI3Kγ IC50): 27 nM
IC50 [7]: 241 nM
IC50 (PI 3-kinase delta): 570 nM

Cc1ccc(S(=O)(=O)NCC(C)(C)O)cc1-c1cnc(N)c(-c2nn(C)nc2C)n1 [Example 19, 3-[5-Amino-6-(2,5-dimethyl-2H-[1,2,3]triazol-4-yl)-pyrazin-2-yl]-N-(2-hydroxy-2-methyl-propyl)-4-methyl-benzenesulfonamide]
IC50 (Vps34): 9400 nM

Cc1ccc(S(=O)(=O)NCC2(CO)CCOCC2)cc1-c1cnc(N)c(-n2cncn2)n1 [Example 127.50]
IC50 [1]: 179 nM
IC50 [3]: 1070 nM
